The record followed here is US6492365B1, “Microsomal triglyceride transfer protein” (Bristol-Myers Squibb Company, priority 1992, dated 2002).

The target of this assay is T1, bovine MTP (Bos taurus, UniProt P55156).
T1 construct: with about 50-200 ng purified MTP in the well of a 96-well plate; from tissue; host or cells: bovine liver
T1 sequence (P55156 12-887): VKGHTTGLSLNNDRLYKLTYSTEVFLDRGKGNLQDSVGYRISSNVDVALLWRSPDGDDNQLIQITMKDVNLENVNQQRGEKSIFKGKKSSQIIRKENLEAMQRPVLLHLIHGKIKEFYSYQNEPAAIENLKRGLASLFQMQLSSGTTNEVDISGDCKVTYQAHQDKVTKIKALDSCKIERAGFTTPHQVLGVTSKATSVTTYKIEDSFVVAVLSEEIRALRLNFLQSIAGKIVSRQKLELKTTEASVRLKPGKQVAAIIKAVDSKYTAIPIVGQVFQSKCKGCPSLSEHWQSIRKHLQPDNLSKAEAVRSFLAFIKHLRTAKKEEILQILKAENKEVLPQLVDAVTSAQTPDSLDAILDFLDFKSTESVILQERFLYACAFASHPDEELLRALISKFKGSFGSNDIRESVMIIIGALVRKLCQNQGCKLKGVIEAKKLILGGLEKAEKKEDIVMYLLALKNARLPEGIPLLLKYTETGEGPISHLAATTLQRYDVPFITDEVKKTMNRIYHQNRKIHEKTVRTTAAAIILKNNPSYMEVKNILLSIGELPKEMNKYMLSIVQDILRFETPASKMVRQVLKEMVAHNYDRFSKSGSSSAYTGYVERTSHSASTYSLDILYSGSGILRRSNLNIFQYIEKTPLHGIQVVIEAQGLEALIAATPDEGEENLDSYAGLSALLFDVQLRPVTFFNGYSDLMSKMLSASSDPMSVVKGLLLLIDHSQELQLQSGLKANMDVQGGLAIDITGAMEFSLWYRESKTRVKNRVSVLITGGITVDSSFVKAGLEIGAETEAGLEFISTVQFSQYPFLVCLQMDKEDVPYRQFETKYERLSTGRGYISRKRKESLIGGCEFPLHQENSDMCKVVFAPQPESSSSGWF
T1 sequence (P05307 21-510 partner): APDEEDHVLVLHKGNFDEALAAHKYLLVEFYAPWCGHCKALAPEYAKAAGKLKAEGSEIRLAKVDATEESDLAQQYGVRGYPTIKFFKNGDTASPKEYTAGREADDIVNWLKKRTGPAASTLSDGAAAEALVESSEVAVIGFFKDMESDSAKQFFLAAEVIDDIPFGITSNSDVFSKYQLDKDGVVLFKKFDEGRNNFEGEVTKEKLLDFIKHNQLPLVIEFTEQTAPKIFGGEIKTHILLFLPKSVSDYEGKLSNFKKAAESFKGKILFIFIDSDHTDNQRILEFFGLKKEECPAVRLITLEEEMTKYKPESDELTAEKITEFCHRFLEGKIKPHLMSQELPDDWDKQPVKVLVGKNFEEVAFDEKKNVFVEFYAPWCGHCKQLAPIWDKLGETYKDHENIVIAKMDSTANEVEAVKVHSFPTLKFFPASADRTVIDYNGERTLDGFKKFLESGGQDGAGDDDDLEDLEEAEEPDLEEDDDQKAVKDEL
Nature of the assay: MTP-catalyzed transport of 14C-PC from donor SUV to acceptor SUV. The format is biochemical. To be noted: at concentrations of inhibitor which decreased TG and CE transfer more than 80%. The procedure: To measure the effect of compound A on bovine MTP-catalyzed transport of CE or PC between membranes, the lipid transfer assay which measures TG transfer between SUV was modified. The composition of the donor vesicles was the same, except 0.25 mol% ^14C-CE or ^14C-PC replaced the labeled TG. The composition of the acceptor vesicles were the same, except labeled PC and unlabeled TG were not included. Following precipitation of donor vesicles, the percentage of lipid transfer was calculated by comparing the ^14C-CE or -PC in the acceptor vesicles in the supernatant following a transfer reaction to the total ^14C-CE or -PC in the assay. The labeled lipid in the supernatant in the absence of MTP was subtracted from the labeled lipid in the presence MTP to calculate the MTP-catalyzed lipid transfer from donor SUV to acceptor SUV. The remainder of the assay was essentially as described previously.

Structures can show the parent of a compound that is named as a salt.

Consider `O=C1c2ccccc2CN1C1CCN(CCC(c2ccccc2)c2ccccc2)CC1` [compound A, 2-[1-(3,3-diphenylpropyl)-4-piperdinyl]-2,3-dihydro-3-oxo-1H-isoindole hydrochloride], for which the PC transfer inhibited entry is “Approximately 40%”.
